Assay results published in patent US20260364080A1, “PYRAZOLO-PYRIMIDINONE COMPOUNDS FOR USE IN METHODS OF INHIBITING WEE1 A KINASE” (Acrivon Therapeutics, Inc., priority 2023, published 2026).
Read-outs that look alike come from different tables or passages of the source.

Experiments:
[1] = target: T1, Myt1 kinase (recombinant PMYT-1) (Homo sapiens, UniProt Q99640); test: Myt1 kinase binding assay (LanthaScreen Eu Kinase Binding Assay)
T1 construct: full length PMYT-1 was expressed by baculovirus in insect cells; purchased Invitrogen A30984; host or cells: insect cells (baculovirus)
T1 sequence (Q99640 1-499): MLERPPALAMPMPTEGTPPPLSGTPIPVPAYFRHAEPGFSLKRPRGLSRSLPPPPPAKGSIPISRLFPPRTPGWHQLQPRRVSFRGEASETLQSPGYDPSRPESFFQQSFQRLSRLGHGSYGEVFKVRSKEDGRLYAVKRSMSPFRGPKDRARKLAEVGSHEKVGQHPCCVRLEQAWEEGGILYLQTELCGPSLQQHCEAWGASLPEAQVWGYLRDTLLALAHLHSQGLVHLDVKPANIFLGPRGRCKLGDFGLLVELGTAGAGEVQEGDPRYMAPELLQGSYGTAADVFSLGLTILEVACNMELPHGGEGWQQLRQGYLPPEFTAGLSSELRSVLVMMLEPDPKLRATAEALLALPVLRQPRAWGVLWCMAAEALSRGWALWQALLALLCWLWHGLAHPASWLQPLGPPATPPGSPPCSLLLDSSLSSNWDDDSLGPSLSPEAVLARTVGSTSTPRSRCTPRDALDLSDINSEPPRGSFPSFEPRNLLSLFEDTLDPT
In short: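 Compound binding to Myt1 kinase was assessed using the LanthaScreen Eu Kinase Binding Assay. This europium-based binding format was applied to quantify how strongly each compound bound to the Myt1 enzyme, and the binding affinity was reported for each compound as an IC50 value.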

[2] = system: ACHN cells; test: Cell Titer Glo viability assay, ACHN cells; type: cell-based; conditions: Homo sapiens, 144 h, absolute EC50
In short: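 Cells grown in MEM with 10% FCS were seeded at 500 (A427), 400 (ACHN) or 250 (DAOY) per well and treated the next day with compound at 17 to 10 000 nM. Viability relative to untreated control was read at 144 h by CellTiter-Glo 2.0.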

[3] = target: T2, Myt1 kinase (CDK1 Thr14 phosphorylation in DAOY medulloblastoma cells) (Homo sapiens, UniProt Q99640); test: AlphaLISA assay, Myt1 kinase target engagement (phospho-CDK1 Thr14) in DAOY cells; type: cell-based
T2 construct: pCDK1 Thr14 AlphaLISA read-out
T2 sequence (Q99640 1-499): T1 sequence (Q99640 1-499)
Experimental: Each of an ACHN renal cell carcinoma cell line (ATCC) and a DAOY medulloblastoma cell line, and an A427 lung cancer line were cultured in Minimum Essential Medium Eagle supplemented with 10% fetal calf serum (Sigma), 1% Penicillin-Streptomycin and 10 mM HEPES buffer (HyClone). Cell cultures were kept in a humidified incubator at 37 °C and 5% CO2. Cells were routinely tested for Mycoplasma contamination.
For target engagement assessment of Myt1 kinase inhibition, quantification of Cdk1 phosphorylated on threonine 14 was detected using the AlphaLISA® SureFire® Ultra™ Human Phospho-CDK1 (Thr14) assay (Perkin Elmer). DAOY or ACHN cells were seeded into tissue culture treated 96-well plates (VWR) to a density of 10,000 or 20,000 cells per well respectively. 24 h post seeding cells were treated for 4 h with compounds at concentrations ranging from 7 to 5000 nM. Cells were washed with PBS and lysed in 50 μl AlphaLISA lysis buffer before freezing at −80 C. Ten ul of the lysate was transferred to 384 well plates and incubated with AlphaLISA donor and acceptor beads according to the manufacturer's instructions. Dose response curves and EC50 values were calculated and visualized using GraphPad Prism version 9. Target engagement for Myt1 kinase can also be measured using the same AlphaLISA assay in OVCAR3 cells, an ovarian cancer cell line. NIH:OVCAR-3 (OVCAR3) cells are cultured in RPMI-1640 medium supplemented with 0.01 mg/ml insulin, 20% FBS, 1% Penicillin-Streptomycin and 10 mM HEPES buffer. 14,000 cells per well are seeded into 96 well tissue culture plates in full medium. Twenty-four hours post seeding, cells are treated with compound for 4 hours at concentrations ranging from 0.017 nM to 1000 nM.

[4] = target: T3, recombinant human Wee1A kinase (Homo sapiens, UniProt P30291); test: Wee1A kinase binding assay (LanthaScreen Eu time-resolved FRET)
T3 construct: full length Wee1 kinase was expressed by baculovirus in insect cells; purchased Invitrogen PV3817; host or cells: insect cells (baculovirus)
T3 sequence (P30291 whole entry): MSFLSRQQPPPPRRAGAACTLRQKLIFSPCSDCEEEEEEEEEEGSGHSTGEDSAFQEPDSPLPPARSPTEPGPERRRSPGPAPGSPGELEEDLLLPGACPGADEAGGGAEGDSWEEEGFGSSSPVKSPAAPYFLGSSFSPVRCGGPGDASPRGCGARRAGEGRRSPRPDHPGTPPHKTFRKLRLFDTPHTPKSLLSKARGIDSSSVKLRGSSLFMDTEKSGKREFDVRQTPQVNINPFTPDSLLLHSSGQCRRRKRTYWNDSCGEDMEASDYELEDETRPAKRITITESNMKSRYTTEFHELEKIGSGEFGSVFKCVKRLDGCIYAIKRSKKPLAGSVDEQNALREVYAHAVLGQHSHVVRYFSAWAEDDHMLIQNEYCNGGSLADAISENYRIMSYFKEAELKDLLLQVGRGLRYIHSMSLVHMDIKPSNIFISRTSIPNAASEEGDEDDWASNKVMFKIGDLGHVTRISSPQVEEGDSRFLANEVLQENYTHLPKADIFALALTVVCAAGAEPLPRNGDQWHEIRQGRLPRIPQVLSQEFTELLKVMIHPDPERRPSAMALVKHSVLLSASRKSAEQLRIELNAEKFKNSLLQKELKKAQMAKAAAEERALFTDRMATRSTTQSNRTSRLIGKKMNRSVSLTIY
In short: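 Full-length, baculovirus-expressed GST-tagged Wee1A (5 nM) was mixed with 2 nM Eu-anti-GST antibody, 30 nM kinase tracer 178 and compound (1% DMSO). Buffer was 50 mM HEPES pH 7.5, 10 mM MgCl2, 1 mM EGTA, 0.01% Brij-35, incubated 60 min at room temperature. TR-FRET 665/615 nm emission ratios from duplicates were curve-fitted.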

[5] = target: T4, Wee1A kinase (CDK1 Tyr15 phosphorylation in ACHN renal cell carcinoma cells) (Homo sapiens, UniProt P30291); test: High-content imaging of pCdk1 Y15, Wee1A kinase target engagement in ACHN cells; type: cell-based
T4 construct: pCDK1 Tyr15 immunofluorescence read-out
T4 sequence (P30291 whole entry): as above
In short: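 EC50 values come from the per-well fraction of cells with nuclear pCdk1 Y15 staining, normalised to DMSO control, by automated immunofluorescence imaging. Cells were ACHN renal carcinoma, treated 4 h with compound at 7–5,000 nM or 0.3–200 nM.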

[6] = 3 nM tracer 178, 2.5 nM PMYT-1, 1 nM Eu-labeled antibody, read-out: Myt1 kinase Binding IC50
[7] = 4 h treatment, read-out: CDK1 Thr14 Phosphorylation EC50
[8] = 30 nM tracer 178, 5 nM Wee1A kinase, 2 nM Eu-labeled antibody, 60 minutes at room temperature, read-out: Wee1A kinase Binding IC50
[9] = 4 h treatment, nuclear positivity for pCdk1 Y15 vs DMSO control, read-out: CDK1 Tyr15 Phosphorylation EC50

IC50 [1, 6] [nM] | EC50 [2] [nM] | EC50 [3, 7] [nM] | IC50 [4, 8] [nM] | EC50 [5, 9] [nM] | IC50 ([1]; Myt1 kinase Binding IC50, 3 nM tracer 178, 2.5 nM PMYT-1, 1 nM Eu-labeled antibody) [nM] | EC50 ([3]; read-out: CDK1 Thr14 Phosphorylation EC50, 4 h treatment) [nM] | IC50 [4] [nM] | EC50 ([5]; read-out: CDK1 Tyr15 Phosphorylation EC50, 4 h treatment, nuclear positivity for pCdk1 Y15 vs DMSO control) [nM] | SMILES
< 20 | 100 to 500 | > 1000 | < 10 | 100 to 500 | – | – | – | – | C=CCn1c(=O)c2cnc(Nc3ccc4c(cnn4C)c3)nc2n1-c1cccc(O[C@H]2CCNC2)n1 [Compound 100, 1-{6-[(S)-3-pyrrolidinyloxy]-2-pyridyl}-2-allyl-6-(1-methyl-1H-indazol-5-ylamino)-1,2-dihydro-3H-1,2,5,7-tetraazainden-3-one]
< 20 | ≤ 100 | 200 to 500 | < 10 | < 100 | – | – | – | – | C=CCn1c(=O)c2cnc(Nc3ccc4c(cnn4C)c3)nc2n1-c1cccc(O[C@H]2CCCNC2)n1 [Compound 104, 1-{6-[(S)-3-piperidyloxy]-2-pyridyl}-2-allyl-6-(1-methyl-1H-indazol-5-ylamino)-1,2-dihydro-3H-1,2,5,7-tetraazainden-3-one]
20 to 100 | ≤ 100 | 500 to 1000 | < 10 | < 100 | – | – | – | – | C=CCn1c(=O)c2cnc(Nc3ccc4c(cnn4C)c3)nc2n1-c1cccc(O[C@H]2CCN(C)C2)n1 [Compound 105, 1-{6-[(S)-1-methyl-3-pyrrolidinyloxy]-2-pyridyl}-2-allyl-6-(1-methyl-1H-indazol-5-ylamino)-1,2-dihydro-3H-1,2,5,7-tetraazainden-3-one]
100 to 500 | ≤ 100 | > 1000 | < 10 | < 100 | – | – | – | – | C=CCn1c(=O)c2cnc(Nc3ccc(Cl)cc3)nc2n1-c1cccc(NC2CCN(C)CC2)n1 [Compound 138, 2-allyl-6-((4-chlorophenyl)amino)-1-(6-((1-methylpiperidin-4-yl)amino)pyridin-2-yl)-1,2-dihydro-3H-pyrazolo[3,4-d]pyrimidin-3-one]
< 20 | 100 to 500 | 200 to 500 | < 10 | < 100 | – | – | – | – | C=CCn1c(=O)c2cnc(Nc3ccc(Cl)cc3)nc2n1-c1cccc(OC2CCNCC2)n1 [Compound 141, 2-allyl-6-((4-chlorophenyl)amino)-1-(6-(piperidin-4-yloxy)pyridin-2-yl)-1,2-dihydro-3H-pyrazolo[3,4-d]pyrimidin-3-one]
20 to 100 | 100 to 500 | 200 to 500 | < 10 | 100 to 500 | – | – | – | – | C=CCn1c(=O)c2cnc(Nc3ccc(Cl)cc3)nc2n1-c1cccc(O[C@H]2CCNC2)n1 [Compound 145, 1-{6-[(S)-3-pyrrolidinyloxy]-2-pyridyl}-2-allyl-6-(p-chlorophenylamino)-1,2-dihydro-3H-1,2,5,7-tetraazainden-3-one]
– | 100 to 500 | – | – | – | < 20 | 500 to 1000 | < 10 | 100 to 500 | C=CCn1c(=O)c2cnc(Nc3cnn(C)c3)nc2n1-c1cccc(O[C@H]2C[C@H]3CC[C@@H](C2)N3C)n1 [Compound 190, 6-[(1-methyl-1H-pyrazol-4-yl)amino]-1-(6-{[(trans)-8-methyl-8-azabicyclo[3.2.1]octan-3-yl]oxy}pyridin-2-yl)-2-(prop-2-en-1-yl)-1H,2H,3H-pyrazolo[3,4-d]pyrimidin-3-one]
100 to 500 | ≤ 100 | > 1000 | < 10 | < 100 | – | – | – | – | C=CCn1c(=O)c2cnc(Nc3ccc4c(c3)OCO4)nc2n1-c1cccc(NC2CCN(C)CC2)n1 [Compound 196, 2-allyl-6-(2H-1,3-benzodioxol-5-ylamino)-1-[6-(1-methyl-4-piperidylamino)-2-pyridyl]-1,2-dihydro-3H-1,2,5,7-tetraazainden-3-one]
100 to 500 | ≤ 100 | > 1000 | < 10 | < 100 | – | – | – | – | C=CCn1c(=O)c2cnc(Nc3cnn(C(C)C)c3)nc2n1-c1cccc(OC2CCN(C)CC2)n1 [Compound 198, 2-allyl-6-(1-isopropyl-4-pyrazolylamino)-1-[6-(1-methyl-4-piperidyloxy)-2-pyridyl]-1,2-dihydro-3H-1,2,5,7-tetraazainden-3-one]
100 to 500 | ≤ 100 | > 1000 | < 10 | < 100 | – | – | – | – | C=CCn1c(=O)c2cnc(Nc3cnn(CC(C)C)c3)nc2n1-c1cccc(OC2CCN(C)CC2)n1 [Compound 200, 2-allyl-6-(1-isobutyl-4-pyrazolylamino)-1-[6-(1-methyl-4-piperidyloxy)-2-pyridyl]-1,2-dihydro-3H-1,2,5,7-tetraazainden-3-one]
20 to 100 | ≤ 100 | > 1000 | < 10 | < 100 | – | – | – | – | C=CCn1c(=O)c2cnc(Nc3ccc(C#N)c(C)c3)nc2n1-c1cccc(OC2CCN(C)CC2)n1 [Compound 204, 2-methyl-4-[(1-{6-[(1-methylpiperidin-4-yl)oxy]pyridin-2-yl}-3-oxo-2-(prop-2-en-1-yl)-1H,2H,3H-pyrazolo[3,4-d]pyrimidin-6-yl)amino]benzonitrile]
< 20 | ≤ 100 | 200 to 500 | < 10 | < 100 | – | – | – | – | C=CCn1c(=O)c2cnc(Nc3ccc4nsnc4c3)nc2n1-c1cccc(OC2CCN(C)CC2)n1 [Compound 208, 2-allyl-6-(2,1,3-benzothiadiazol-5-ylamino)-1-[6-(1-methyl-4-piperidyloxy)-2-pyridyl]-1,2-dihydro-3H-1,2,5,7-tetraazainden-3-one]
20 to 100 | ≤ 100 | > 1000 | < 10 | 100 to 500 | – | – | – | – | C=CCn1c(=O)c2cnc(Nc3cccnc3)nc2n1-c1cccc(OC2CCN(C)CC2)n1 [Compound 229, 2-allyl-1-[6-(1-methyl-4-piperidyloxy)-2-pyridyl]-6-(3-pyridylamino)-1,2-dihydro-3H-1,2,5,7-tetraazainden-3-one]
20 to 100 | ≤ 100 | 200 to 500 | < 10 | < 100 | – | – | – | – | C=CCn1c(=O)c2cnc(Nc3ccc4[nH]ncc4c3)nc2n1-c1cccc(OC2CCN(C)CC2)n1 [Compound 238, 6-((1H-indazol-5-yl)amino)-2-allyl-1-(6-((1-methylpiperidin-4-yl)oxy)pyridin-2-yl)-1,2-dihydro-3H-pyrazolo[3,4-d]pyrimidin-3-one]
